According to patent US20240368174A1, “Antiviral Heterocyclic Compounds” (Enanta Pharmaceuticals, Inc., priority 2023, published 2024):

tested on: HMPV clinical isolate A2 strain TN 94-49; assay: HMPV antiviral assay, Method 1 (LLC-MK2 cells, ATP-Lite); format: cell-based; settings: human metapneumovirus, hMPV A2 TN/94-49, LLC-MK2 cells
Protocol: In vitro HMPV antiviral activity was evaluated using the clinical isolate A2 strain TN 94-49 (obtained from Dr. John Williams, Vanderbilt University, Tennessee) and LLC-MK2 cells (ATCC #CCL-7), an immortalized kidney epithelial cell line from Macaca mulatta. Compounds were resuspended in dimethyl sulfoxide (DMSO) at 10 mM, serially diluted and added to a 384-well source plate. Subsequently, the compounds were diluted and transferred onto 384-well assay plates using the Echo-650 automated liquid handling system (Beckman Coulter, Indiana). The test compounds were assessed in duplicate at a top concentration of 2 μM followed by 2.5-fold serial dilutions to give a total of 10 concentration points. DMSO control wells were also included on the assay plates and were either infected or not, acting as positive and negative controls. A2 TN 94-49 virus infections were performed in-suspension with LLC-MK2 cells. The cells were washed twice with PBS and removed from the cell-culture flask with 0.25% trypsin-EDTA (Thermo Fisher Scientific, MA). The trypsin-EDTA was inactivated by resuspending in 2% fetal bovine serum (FBS) and OptiMEM (ThermoFisher Scientific, MA) containing 1% penicillin-streptomycin. Cells were pelleted by centrifuging for 5 minutes at 800 rpm, the supernatant was removed, and cells were re-suspended and washed in PBS plus 100 μg/mL CaCl2). This step was performed twice. Cells were then re-suspended in serum-free (SF)-OptiMEM containing 4 μg/mL TPCK-Trypsin (Sigma Aldrich, MO), 1% penicillin-streptomycin (ThermoFisher Scientific, MA) and 100 μg/mL CaCl2). Cells were counted and seeded at a density of 5,000 cells/well, 12.5 μL/well. Virus infections were done at a multiplicity of infection (MOI) of 0.005 with 12.5 μL added per well. Virus infections were performed in infection media which contained SF-OptiMEM, 100 μg/mL CaCl2) and 1% penicillin-streptomycin. HMPV viral stocks are suspended in infection media+5% glycerol, thus an equal volume of infection media+5% glycerol was added to uninfected wells to equalize the final % glycerol across all wells of the assay plate. The final concentration of TPCK-trypsin was 2 μg/mL. The assay plates were incubated at 37° C., 5% CO2 for 7 days. After 7 days incubation, 12.5 μL of ATP-Lite (PerkinElmer, MA) was added to each well and the raw luminescence values were determined using the Envision 2104 (Perkin Elmer, MA). The average of the raw luminescence values for the cells and virus only positive control wells was subtracted from all conditions tested and the percent cell health was determined by dividing these values by the average of the cells only negative control wells. EC50 values were then calculated by non-linear regression using a four-parameter curve logistic equation. The curve fit model employed was XLFit Dose Response One Site Model 200: y=(A+(B/(1+((x/C)^D)))), where A is the minimum y value, B is the maximum y value, C is the log EC50 value, and D is the slope factor.

EC50 [nM]	Compound
< 500	C[C@]1(C(N)=O)COc2c1cc([C@@](O)(CNC(=O)c1cc(OC3CC3)c3nn(C4CC4)cc3c1)C1CC1)nc2-c1cc(Cl)c(F)cc1F [Example 2]
> 500	COc1cc(C(=O)NC[C@@](O)(c2cc3c(c(-c4cc(Cl)c(F)cc4F)n2)OC[C@]3(C)C(N)=O)c2cc(C)cs2)cc2cn(C3CC3)nc12 [Example 466]
< 500	COc1cc(C(=O)NC[C@](O)(c2cc3c(c(-c4cc(C(F)(F)F)ccc4C)n2)OC[C@]3(C)C(N)=O)C2CC2)cc2cn(C3CC3)nc12 [Example 53]
< 500	[2H]C([2H])([2H])c1nc2c(OC)cc(C(=O)NC[C@@](O)(c3ccc(OC)cc3)c3cc4c(c(-c5cc(Cl)c(F)cc5F)n3)OC[C@]4(C)C(N)=O)cc2s1 [Example 168]
< 500	CNC(=O)[C@@]1(C)COc2c1cc([C@@](O)(CNC(=O)c1cc(OC)c3nn(C4CC4)cc3c1)c1ccccc1)nc2-c1cc(Cl)c(F)cc1F [Example 141]
> 500	COc1cc(C(=O)NC[C@](O)(c2cc3c(c(-c4cccc(SC(F)(F)F)c4)n2)OC[C@]3(C)C(N)=O)C2CC2)cc2cn(C3CC3)nc12 [Example 36]
< 500	COc1cc(C(=O)NC[C@@](O)(c2ccsc2)c2cc3c(c(-c4cc(Cl)c(F)cc4F)n2)OC[C@]3(C)C(N)=O)cc2cn(C3CC3)nc12 [Example 173]
< 500	COc1cc(C(=O)NC[C@@](O)(c2ccc(F)cc2)c2cc3c(c(-c4ccc(F)c(Cl)c4Cl)n2)OC[C@]3(C)C(N)=O)cc2cc(Cl)c(C)nc12 [Example 44]
< 500	C[C@]1(C(N)=O)COc2c1cc([C@@](O)(CNC(=O)c1cc(OC(F)F)c3nn(C4CC4)cc3c1)C1CC1)nc2-c1ccc(F)c(Cl)c1F [Example 40]
< 500	COc1cc(C(=O)NC[C@@](O)(c2cccc(F)c2)c2cc3c(c(-c4cc(Cl)c(F)cc4F)n2)OC[C@]3(C)C(N)=O)cc2cn(C(F)F)nc12 [Example 134]
< 500	COc1cc(C(=O)NC[C@](O)(c2cc3c(c(-c4ccc(Cl)c(Cl)c4Cl)n2)OC[C@]3(C)C(N)=O)C2CC2)cc2cn(C3CC3)nc12 [Example 60]
> 500	COc1cc(C(=O)NC[C@](O)(c2cc3c(c(-c4ccc(C(F)(F)F)c(C)c4)n2)OC[C@]3(C)C(N)=O)C2CC2)cc2cn(C3CC3)nc12 [Example 55]
> 500	COc1cc(C(=O)NC[C@](O)(c2cc3c(c(-c4cc(F)c(F)cc4F)n2)OC[C@]3(C)C(N)=O)C2(O)CC2)cc2cn(C3CC3)nc12 [Example 215]
> 500	COc1cc(C(=O)NC[C@](O)(c2cc3c(c(-c4ccc5c(c4Cl)OC(F)(F)O5)n2)OC[C@]3(C)C(N)=O)C(F)(F)F)cc2cn(C3CC3)nc12 [Example 52]
< 500	COc1cc(C(=O)NC[C@@](O)(c2ccccc2)c2cc3c(c(-c4ccc5c(c4Cl)OC(F)(F)O5)n2)OC[C@]3(C)C(N)=O)cc2cn(C3CC3)nc12 [Example 251]
< 500	COc1cc(C(=O)NC[C@@](O)(c2ccccc2)c2cc3c(c(-c4cc(C(F)(F)F)ccc4F)n2)OC[C@]3(C)C(N)=O)cc2cc(C3CC3)nn12 [Example 149]
< 500	COc1cc(C(=O)NC[C@](O)(c2cc3c(c(-c4cc(F)c(F)cc4F)n2)OC[C@]3(C)C(N)=O)C2CC(F)(F)C2)cc2cn(C3CC3)nc12 [Example 31]
< 500	[2H]C([2H])([2H])c1cc2cc(C(=O)NC[C@](O)(c3cc4c(c(-c5cc(F)c(F)cc5F)n3)OC[C@]4(C)C(N)=O)C3CC3)cc(OC)c2nc1C([2H])([2H])[2H] [Example 28]
> 500	COc1cc(C(=O)NC[C@](O)(c2cc3c(c(-c4cc(C)cc(F)c4F)n2)OC[C@]3(C)C(N)=O)C2CC2)cc2cn(C3CC3)nc12 [Example 49]
< 500	[2H]c1nc2c(OC)cc(C(=O)NC[C@](O)(c3cc4c(c(-c5cc(F)c(F)cc5F)n3)OC[C@]4(C)C(N)=O)C3CC3)cc2cc1Br [Example 30]

Continued, molecule first:

Compound	EC50 [nM]
COc1cc(C(=O)NC[C@](O)(c2cc3c(c(-c4cc(Cl)c(F)cc4F)n2)OC[C@]3(C)C(N)=O)C2CC2)cc2cc(C(F)(F)F)cnc12 [Example 1]	> 500
Cc1nc2ccc(C(=O)NC[C@@](O)(c3ccccc3)c3cc4c(c(-c5ccc(F)c(Cl)c5Cl)n3)OC[C@]4(C)C(N)=O)cc2o1 [Example 267]	< 500
COc1cc(C(=O)NC[C@@](O)(c2ccccc2)c2cc3c(c(-c4cc(Cl)c(F)cc4F)n2)OC[C@]3(C)C(N)=O)cc2oc(C)nc12 [Example 84]	< 500
Cc1nc2c(OC(F)F)cc(C(=O)NC[C@@](O)(c3cccc(F)c3)c3cc4c(c(-c5cc(Cl)c(F)cc5F)n3)OC[C@]4(C)C(N)=O)cc2cc1Br [Example 135]	> 500
COc1cc(C(=O)NC[C@](O)(c2cc3c(c(-c4cc(Cl)c(F)cc4F)n2)OC[C@]3(C)C(N)=O)c2ccccc2F)cc2cn(C(F)F)nc12 [Example 138]	< 500
C[C@]1(C(N)=O)COc2c1cc([C@@](O)(CNC(=O)c1ccc3nc(C(F)(F)F)oc3c1)c1ccccc1)nc2-c1cc(Cl)c(F)cc1F [Example 82]	> 500
COc1cc(C(=O)NC[C@@](O)(c2ccsc2)c2cc3c(c(-c4cc(F)c(F)cc4F)n2)OC[C@]3(C)C(N)=O)cc2cn(C3CC3)nc12 [Example 177]	< 500
COc1cc(C(=O)NC[C@](O)(c2cc3c(c(-c4ccc(C)c(C(F)(F)F)c4)n2)OC[C@]3(C)C(N)=O)C2CC2)cc2cn(C3CC3)nc12 [Example 56]	> 500
COc1cc(C(=O)NC[C@](O)(c2cc3c(c(-c4cc(Cl)c(F)cc4F)n2)OC[C@]3(C)C(N)=O)c2cc(C)cs2)cc2cn(C3CC3)nc12 [Example 467]	< 500
COc1cc(C(=O)NC[C@](O)(c2cc3c(c(-c4ccc(F)c(CO)c4F)n2)OC[C@]3(C)C(N)=O)C2CC2)cc2cn(C3CC3)nc12 [Example 72]	> 500
COc1cc(C(=O)NC[C@](O)(c2cc3c(c(-c4cccc(S(F)(F)(F)(F)F)c4)n2)OC[C@]3(C)C(N)=O)C(F)(F)F)cc2cn(C3CC3)nc12 [Example 54]	> 500
[2H]C([2H])([2H])c1nc2c(OC)cc(C(=O)NC[C@@](O)(c3ccccc3)c3cc4c(c(-c5ccc(F)c(Cl)c5Cl)n3)OC[C@]4(C)C(N)=O)cc2s1 [Example 273]	< 500
COc1cc(C(=O)NC[C@@](O)(c2ccsc2)c2cc3c(c(-c4cc(F)c(F)cc4F)n2)OC[C@]3(C)C(N)=O)cc2cn(C(F)F)nc12 [Example 178]	< 500
COc1cc(C(=O)NC[C@@](O)(c2ccccc2)c2cc3c(c(-c4cc(C(F)(F)F)ccc4F)n2)OC[C@]3(C)C(N)=O)cc2cn(C(F)F)nc12 [Example 148]	< 500
COc1cc(C(=O)NCC(O)(c2csc(Cl)c2)c2cc3c(c(-c4cc(Cl)c(F)cc4F)n2)OC[C@]3(C)C(N)=O)cc2cn(C3CC3)nc12 (some centres unmarked) [Example 471]	< 500
[2H]c1nc2c(OC(F)F)cc(C(=O)NC[C@@](O)(c3ccccc3)c3cc4c(c(-c5cc(Cl)c(F)cc5F)n3)OC[C@]4(C)C(N)=O)cc2cc1C([2H])([2H])[2H] [Example 217]	< 500
COc1cc(C(=O)NC[C@@](O)(c2ccccc2)c2cc3c(c(-c4cc(Cl)c(F)cc4F)n2)OC[C@]3(C)C(N)=O)cc2ccc(C)nc12 [Example 79]	< 500
[2H]C([2H])([2H])c1nc2c(OC)cc(C(=O)NC[C@@](O)(c3ccc(F)cc3)c3cc4c(c(-c5ccc6c(c5Cl)OC(F)(F)O6)n3)OC[C@]4(C)C(N)=O)cc2s1 [Example 27]	< 500
